Test results taken from publication PMC5840343, “Interplay between conformational selection and zymogen activation” (Scientific Reports, 2018).
Several values for one entry are separate records, joined by “and”; a condition that tells them apart may be missing. Equal values may be shown once. Entries after “also recorded” stand apart in the source; their conditions may differ. Values belong to the compound of their own block, whether it stands above or below them.

How the values were obtained:
prethrombin-1 [1] = target: T1, prethrombin-1 (Homo sapiens, UniProt P00734, S568A); test: Equilibrium intrinsic fluorescence titration of FPR binding; details: pH 8.0, 15 °C, read-out: Kd,app (direct fluorescence titration)
T1 construct: generates the intermediate prethrombin-1 (Pre1) composed of kringle-2 and the protease domain; made in house
Excerpt: (§1) defined in terms of the intrinsic equilibrium dissociation constant, Kd, and the E*:E ratio k21/k12. Direct and independent determination of Kd,app can be obtained by fluorescence titrations under the same experimental conditions used for stopped-flow measurements. The definition of Kd,app in eq. 3 leads to three useful expressions, i.e.,4 kon≥α22(0)/α2(∞)Kd,app when α2 decreases hyperbolically with [L] as in the case of prothrombin (Fig. 3A),5 kon=α2(0)[α2(∞)+k21]/α2(∞)Kd,app=α2(0)/Kd,app+α2(0)/α2(∞)Kd,appk21 when α2 increases hyperbolically with [L] as in the case of prethrombin-2 (Fig. 3A), and6 kon=α2(0)+k21/Kd,app=α2(0)/Kd,app+1/Kd,appk21 when α2 is independent of [L] as in the case of prethrombin-1 (Fig. 3A). The expression in eq. 4 yields a direct estimate of the lower limit of kon from which the value of k21 and the E*:E ratio can be arrived at with the help of eq. 3 (Table 1). The expressions in eqs 5 and 6, on the other hand, require assumptions to be made on the value of kon to arrive at the value of k21. In both cases, a lower limit for kon is estimated as kon≥α2(0)/Kd,app .

prothrombin [2] = target: T2, prothrombin (Homo sapiens, UniProt P00734, S568A); test: as above; details: 400 mM ChCl, 50 mM Tris, 0.1% PEG8000, pH 8.0, 15 °C, read-out: Kd,app (direct fluorescence titration)
T2 construct: Gla-domain (A1-A46), kringle-1 (C65-C143), kringle-2 (C170-C248) and the protease domain (T272-E579); made in house
Excerpt: as §1

meizothrombin [3] = target: T3, meizothrombin (Homo sapiens, UniProt P00734, S568A); test: as above
T3 construct: Cleavage at R320 retains the modular structure of prothrombin and generates the active intermediate meizothrombin; Cleavage at R320 generates the active intermediate meizothrombin that retains the modular organization of prothrombin; made in house
Excerpt: as §1

thrombin [4] = target: T4, thrombin (Homo sapiens, UniProt P00734, S568A); test: as above; details: for Kd: thrombin
T4 construct: the protease domain composed of the A and B chains; made in house
Excerpt: as §1

prethrombin-2 [5] = target: T5, prethrombin-2 (Homo sapiens, UniProt P00734, S568A); test: as above; details: pH 8.0, 15 °C, read-out: Kd,app (direct fluorescence titration)
T5 construct: the protease domain (T272-E579); made in house
Excerpt: as §1

meizothrombin [6] = target: T3, meizothrombin; test: Stopped-flow rapid kinetics of FPR binding to the active site
Experimental: (§2) Rapid kinetic experiments were conducted on an Applied Photophysics SX20 stopped-flow spectrometer under conditions of excess ligand. The dead time of the mixing cell for this instrument is 0.5–1 ms. Final concentrations of 50–75 nM of thrombin and meizothrombin, or 200–400 nM of prothrombin, prethrombin-1 and prethrombin-2 were used in a buffer containing 400 mM ChCl, 50 mM Tris, 0.1% PEG8000, pH 8.0, at 15 °C. The solution containing the protein was mixed 1:1 with 60 µL solutions of FPR in the same buffer. FPR is the […] analog of the irreversible active site inhibitor H-D-Phe-Pro-Arg-CH2Cl, for which detailed structural information exists on its interaction with the active site of thrombin[47],[61]. Rapid kinetics of FPR binding were studied using an excitation of 295 nm and a cutoff filter at 320 nm. Baselines were measured by mixing the protein into buffer in the absence of ligand. Each kinetic trace for a given ligand concentration was taken as the average of a minimum of six determinations. Traces were fit to single or double exponentials based on the analysis of residuals using software supplied by Applied Photophysics.
(§3) A detailed discussion of ligand binding mechanisms established by rapid kinetics is given elsewhere[25]–[27]. and is briefly summarized below for the sake of completeness. The relevant kinetic scheme for ligand binding to the active site of a trypsin-like protease or zymogen is1 E^∗k12←⟶k21Ekon[L]←⟶koffE:L E* and E depict the partitioning of the ensemble of pre-existing conformations between those with the active site accessible (E) or inaccessible (E*) to ligand binding. The ligand, L, selectively binds to E with a second order rate of association kon. Under conditions where L is in large excess over the macromolecule, the reaction scheme in eq. 1 gives two independent rates of relaxation to equilibrium according to the expression2 2α1,2=k12+k21+kon[L]+koff±(kon[L]+koff−k12−k21)^2+4k21kon[L]
(§4) The fast relaxation, α1, always increases and eventually grows linearly with [L]. Depending on the sign of the expression koff−k12 , the value of the slow relaxation α2 hyperbolically decreases ( koff>k12 ) or increases ( koff<k12 ) with [L], and remains constant when koff=k12 [25]–[27]. The fast relaxation that eventually grows linearly with [L] reflects the binding event. The slow relaxation monitors the conformational transition associated with binding.
(§5) Resolution of all four independent rate constants in the reaction scheme in eq. 1 requires measurements of both relaxations. […] 2 can be resolved unequivocally. When α2 decreases hyperbolically with [L], the lower limit in the plot, α2(0) , measures the value of koff or the sum k12+k21 , whichever is smaller. The upper limit α2(∞) measures the rate for the E* → E transition k12. […] If only α2 is accessible to experimental measurements, estimation of the E*:E ratio requires additional information from the apparent equilibrium dissociation constant3 Kd,app=koff/kon(1+k21/k12)=Kd(1+k21/k12)

thrombin [7] = target: T4, thrombin; test: as above
Experimental: as §2, §3, §4, §5

prethrombin-1 [8] = target: T1, prethrombin-1; test: as above
Experimental: as §2, §3, §4, §5
as §1, with “The expressions in eqs 5 and 6, on the other hand, require assumptions to be made on the value of kon to arrive at the value of k21. In both cases, a lower limit for kon is estimated as kon≥α2(0)/Kd,app .” left out

prothrombin [9] = target: T2, prothrombin; test: as above
Experimental: as §2, §3, §4, §5
as §1, with “The expressions in eqs 5 and 6, on the other hand, require assumptions to be made on the value of kon to arrive at the value of k21. In both cases, a lower limit for kon is estimated as kon≥α2(0)/Kd,app .” left out

prethrombin-2 [10] = target: T5, prethrombin-2; test: as above
Experimental: as §2, §3, §4, §5
as §1, with “The expressions in eqs 5 and 6, on the other hand, require assumptions to be made on the value of kon to arrive at the value of k21. In both cases, a lower limit for kon is estimated as kon≥α2(0)/Kd,app .” left out

prothrombin mutant R271W = prothrombin mutant R271W (Homo sapiens, UniProt P00734, R314W); test: Limited proteolysis by chymotrypsin in the absence or presence of argatroban; format: biochemical
Excerpt: (§6) Aliquots of proteolysis mixtures were quenched whit NuPAGE LDS buffer and analyzed by non-reducing SDS-PAGE (4–12% acrylamide). None of the gels were cropped and originals are available in the Supplementary Information. The relative intensity of intact protein gel bands, after Coomassie staining, was estimated by densitometric analysis and fit to single exponential decay over time.

prothrombin mutant R320W = prothrombin mutant R320W (Homo sapiens, UniProt P00734, R363W); test: as above; format: biochemical
Excerpt: as §6

thrombin [11] = target: thrombin (Homo sapiens, UniProt P00734); test: Limited proteolysis by subtilisin in the absence or presence of argatroban; format: biochemical; details: argatroban 500 μM; pH 7.4, 37 °C
Excerpt: as §6

prethrombin-2 [12] = target: prethrombin-2 (Homo sapiens, UniProt P00734); test: as above; format: biochemical; details: argatroban 500 μM; pH 7.4, 37 °C
Excerpt: as §6

prothrombin [13] = target: prothrombin (Homo sapiens, UniProt P00734); test: as above; format: biochemical; details: argatroban 500 μM
Excerpt: as §6

[14] = pH 8.0, 15 °C, read-out: Kd,app (direct fluorescence titration)
[15] = active site Ser replaced by Ala, E*→E rate, pH 8.0, 15 °C
[16] = from rate constants, read-out: Kd,app (calculated from eq. 3)

Kd (prethrombin-1 [1]): 92000 ± 8000 nM
Kd (prothrombin [2]): 190000 ± 20000 nM
Kd (meizothrombin [3]; [14]): 510 ± 40 nM
Kd (meizothrombin [3]; read-out: Kd,app from equilibrium measurements): 510 ± 40 nM
higher affinity of thrombin compared to prothrombin (thrombin [4]; ratio of Kd,app, thrombin vs prothrombin): 700 fold
Kd (thrombin [4]; [14]): 280 ± 20 nM
Kd (thrombin [4]; read-out: Kd,app from equilibrium measurements of intrinsic fluorescence titration): 280 ± 20 nM
Kd (prethrombin-2 [5]): 29000 ± 2000 nM
k21 (meizothrombin [6]; E→E* rate, pH 8.0, 15 °C): 3.4 ± 0.7 s⁻¹
k12 (meizothrombin [6]; [15]): 8.8 ± 0.5 s⁻¹
Kd (meizothrombin [6]; [16]): 440 ± 30 nM
koff (meizothrombin [6]; pH 8.0, 15 °C): 0.8 ± 0.1 s⁻¹
kon (meizothrombin [6]; pH 8.0, 15 °C): 2.5e+06 ± 300000 M⁻¹ s⁻¹
k21 (thrombin [7]; E→E* rate, pH 8.0, 15 °C): 3.8 ± 0.8 s⁻¹
k12 (thrombin [7]; [15]): 16 ± 1 s⁻¹
Kd (thrombin [7]; [16]): 290 ± 20 nM
koff (thrombin [7]; pH 8.0, 15 °C): 0.6 ± 0.1 s⁻¹
kon (thrombin [7]; pH 8.0, 15 °C): 2.6e+06 ± 300000 M⁻¹ s⁻¹
k12 (prethrombin-1 [8]; prethrombin-1, catalytic Ser replaced by Ala, E*→E rate, pH 8.0, 15 °C): 42 ± 2 s⁻¹
kon (prethrombin-1 [8]; prethrombin-1, lower estimate from eq. 6, pH 8.0, 15 °C): ≥460000 ± 50000 M⁻¹ s⁻¹
koff (prethrombin-1 [8]; prethrombin-1, pH 8.0, 15 °C): 42 ± 2 s⁻¹
Kd (prethrombin-1 [8]; prethrombin-1, under the assumption that kon = 1.5 μM^−1 s^−1, read-out: Kd,app (calculated from eq. 3)): ≥ 92000 nM
k21 (prothrombin [9]; E→E* rate, same buffer, pH 8.0, 15 °C): ≥38 ± 3 s⁻¹
k12 (prothrombin [9]; catalytic Ser replaced by Ala, E*→E rate, 400 mM ChCl, 50 mM Tris, 0.1% PEG8000, pH 8.0, 15 °C): 6.9 ± 0.3 s⁻¹
Kd (prothrombin [9]; from rate constants, pH 8.0, 15 °C, read-out: Kd,app (calculated from eq. 3)): ≥ 200000 nM
koff (prothrombin [9]; koff ≥ α2(0), pH 8.0, 15 °C): ≥45 ± 5 s⁻¹
kon (prothrombin [9]; lower estimate from eq. 4, pH 8.0, 15 °C): ≥1.5e+06 ± 100000 M⁻¹ s⁻¹
α2(0), limiting value of the slow relaxation (prothrombin [9]; the smaller between koff or the sum k12 + k21): 45 ± 5 s⁻¹
k12 (prethrombin-2 [10]; prethrombin-2, catalytic Ser replaced by Ala, E*→E rate, pH 8.0, 15 °C): 170 ± 10 s⁻¹
kon (prethrombin-2 [10]; prethrombin-2, lower estimate from eq. 5, pH 8.0, 15 °C): ≥930000 ± 80000 M⁻¹ s⁻¹
koff (prethrombin-2 [10]; prethrombin-2, pH 8.0, 15 °C): 27 ± 2 s⁻¹
Kd (prethrombin-2 [10]; prethrombin-2, under the assumption that kon = 1.5 μM^−1 s^−1, read-out: Kd,app (calculated from eq. 3)): ≥ 29000 nM
Compound: N=C(N)NCCC[C@H](NC(=O)[C@@H]1CCCN1C(=O)[C@H](N)Cc1ccccc1)C(=O)Nc1ccc([N+](=O)[O-])cc1 [FPR, H-D-Phe-Pro-Arg-p-nitroanilide]

kexp of chymotrypsin hydrolysis in the presence of argatroban (prothrombin mutant R271W; R271W 0.1 mg/ml, argatroban 500 μM, chymotrypsin 1:50 (w/w), pH 7.4, 37 °C): 0.027 ± 0.004 min⁻¹
enhancement of the rate of chymotrypsin hydrolysis (prothrombin mutant R271W; R271W, presence vs absence of argatroban): 3 fold and > 3 fold
kexp of chymotrypsin hydrolysis in the presence of argatroban (prothrombin mutant R320W; R320W 0.1 mg/ml, argatroban 500 μM, chymotrypsin 1:50 (w/w), pH 7.4, 37 °C): 0.035 ± 0.007 min⁻¹
enhancement of the rate of chymotrypsin hydrolysis (prothrombin mutant R320W; R320W, presence vs absence of argatroban): 3 fold and > 3 fold
effect on products of subtilisin proteolysis of prothrombin (prothrombin [13]; non-reducing SDS-PAGE): prevents accumulation of prethrombin-1
effect on the rate of proteolytic digestion of prothrombin by subtilisin (prothrombin [13]; pH 7.4, 37 °C): significantly enhanced
enhancement of the rate of prothrombin digestion by subtilisin (prothrombin [13]; subtilisin 1:1000 (w/w), pH 7.4, 37 °C, densitometry): > 10 fold
Compound: CC1CNc2c(cccc2S(=O)(=O)N[C@@H](CCCNC(=N)N)C(=O)N2CC[C@@H](C)C[C@@H]2C(=O)O)C1 (some centres unmarked) [argatroban]
effect on subtilisin digestion of thrombin (thrombin [11]): practically absent; also recorded: no effect
effect on subtilisin digestion of prethrombin-2 (prethrombin-2 [12]): much less pronounced than that of prothrombin
